Changes are numbered by the printed parent chain.
Tests used:
[1] = target: T1, STAT5a Trp566Arg/Lys644Met (Homo sapiens, UniProt P42229, K644M/W566R); assay: FP-based competitive binding assay, STAT5a Trp566Arg/Lys644Met
T1 construct: His; made in house
T1 sequence (P42229 1-794 W566R/K644M): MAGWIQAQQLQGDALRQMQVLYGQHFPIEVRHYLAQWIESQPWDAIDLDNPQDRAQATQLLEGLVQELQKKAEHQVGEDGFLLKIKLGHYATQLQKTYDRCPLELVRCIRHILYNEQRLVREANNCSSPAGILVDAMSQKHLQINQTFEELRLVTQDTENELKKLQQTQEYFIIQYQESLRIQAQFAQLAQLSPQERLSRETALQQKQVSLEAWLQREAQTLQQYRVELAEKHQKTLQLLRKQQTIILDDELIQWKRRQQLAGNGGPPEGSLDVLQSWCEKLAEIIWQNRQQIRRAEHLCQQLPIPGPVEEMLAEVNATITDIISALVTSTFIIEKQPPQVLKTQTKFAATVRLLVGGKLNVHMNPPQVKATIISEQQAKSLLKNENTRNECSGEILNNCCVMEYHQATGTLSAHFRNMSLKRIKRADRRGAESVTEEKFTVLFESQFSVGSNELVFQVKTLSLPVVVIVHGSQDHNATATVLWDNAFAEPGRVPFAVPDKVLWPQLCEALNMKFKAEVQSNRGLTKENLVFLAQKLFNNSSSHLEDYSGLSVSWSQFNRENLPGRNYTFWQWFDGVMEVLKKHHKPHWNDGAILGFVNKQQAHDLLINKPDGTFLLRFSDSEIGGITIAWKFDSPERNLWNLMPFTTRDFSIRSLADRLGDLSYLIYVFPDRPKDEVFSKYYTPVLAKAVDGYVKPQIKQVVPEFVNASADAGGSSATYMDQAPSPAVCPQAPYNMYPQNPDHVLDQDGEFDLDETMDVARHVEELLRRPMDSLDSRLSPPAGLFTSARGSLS
Protocol: (§1) Fluorescence polarization assays
(§2) The ability of test compounds to displace 5-carboxyfluorescein-GY(PO3H2)LVLDKW (final concentration: 10 nM) from the SH2 domain of STAT5a/b proteins was analyzed. Proteins […]
(§3) was applied in dilution series comprising the following concentrations: 0.024 – 200 µM […]
(§4) and 0.146 – 600 µM (STAT5b Arg566Glu), respectively. The assays were performed in buffer containing 10 mM Tris, 50 mM NaCl, 1 mM DTT, 1 mM EDTA and 0.1% (v/v) NP-40. Fosfosal was dissolved in DMSO. STAT5a/b proteins and fosfosal were incubated at room temperature for 1 h before adding peptide. Samples were transferred to 384-well microtiter plates and fluorescence polarization was read after a further 1 h incubation time. All measurements were performed in triplicate (n=3), except for STAT5b (n=6) and STAT5a Trp566Arg (n=4). Percent binding was calculated based on a logarithmic curve fit using OriginPro 8G software. IC50 values were converted to Ki values using the published equation.[4] […]
(§5) [4] Z. Nikolovska-Coleska, R. Wang, X. Fang, H. Pan, Y. Tomita, P. Li, P. P. Roller, K.
(§6) Krajewski, N. G. Saito, J. A. Stuckey, S. Wang, Anal. Biochem. 2004, 332, 261-273.

[2] = target: T2, STAT5a Trp566Arg (Homo sapiens, UniProt P42229, W566R); assay: FP-based competitive binding assay, STAT5a Trp566Arg
T2 construct: His; made in house
T2 sequence (P42229 1-794 W566R): T1 sequence (P42229 1-794 W566R/K644M) with M644K
Protocol: as §1, §2, §3, §4, §5, §6

[3] = target: T3, STAT5b Arg566Trp (Homo sapiens, UniProt P51692, R566W); assay: FP-based competitive binding assay, STAT5b Arg566Trp
T3 construct: His; made in house
T3 sequence (P51692 1-787 R566W): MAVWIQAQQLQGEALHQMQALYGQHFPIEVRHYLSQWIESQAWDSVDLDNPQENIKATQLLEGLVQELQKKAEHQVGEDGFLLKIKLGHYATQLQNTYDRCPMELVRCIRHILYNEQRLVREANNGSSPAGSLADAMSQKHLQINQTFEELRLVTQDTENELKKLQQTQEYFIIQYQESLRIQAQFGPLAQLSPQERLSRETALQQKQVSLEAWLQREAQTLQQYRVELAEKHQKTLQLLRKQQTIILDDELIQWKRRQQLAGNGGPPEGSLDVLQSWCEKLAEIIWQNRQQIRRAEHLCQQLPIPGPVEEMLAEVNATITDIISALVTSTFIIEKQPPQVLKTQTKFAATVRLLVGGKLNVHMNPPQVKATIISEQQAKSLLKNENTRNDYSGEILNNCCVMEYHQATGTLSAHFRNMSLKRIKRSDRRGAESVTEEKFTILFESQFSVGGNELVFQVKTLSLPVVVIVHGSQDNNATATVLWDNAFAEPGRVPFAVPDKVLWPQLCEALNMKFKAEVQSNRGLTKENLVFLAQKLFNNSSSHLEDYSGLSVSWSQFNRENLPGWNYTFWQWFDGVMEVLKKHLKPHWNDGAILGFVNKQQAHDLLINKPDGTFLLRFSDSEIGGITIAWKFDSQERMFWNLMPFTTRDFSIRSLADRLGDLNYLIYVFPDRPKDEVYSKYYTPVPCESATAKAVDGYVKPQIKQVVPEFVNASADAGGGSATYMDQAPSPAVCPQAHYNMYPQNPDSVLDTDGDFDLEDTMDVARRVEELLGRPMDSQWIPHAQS
Protocol: as §1, §2, §3, §4, §5, §6

| IC50 ([1]; STAT5a Trp566Arg/Lys644Met) [µM] | Ki ([1]; STAT5a Trp566Arg/Lys644Met, Ki calculated from IC50) [µM] | IC50 ([2]; STAT5a Trp566Arg) [µM] | Ki ([2]; STAT5a Trp566Arg, Ki calculated from IC50, n=4) [µM] | increase of activity against STAT5a Trp566Arg compared to wild type STAT5a ([2]; ratio of Ki values) [fold] | inhibition at 600 µM ([3]; STAT5b Arg566Trp, 600 μM, the highest concentration tested) [%] | Structure (SMILES) | Kd [1] [µM] | Kd [2] [µM] | Kd [3] [µM] |
| --- | --- | --- | --- | --- | --- | --- | --- | --- | --- |
| – | – | – | – | – | – | CC(C)C[C@H](NC(=O)[C@H](Cc1ccc(OP(=O)(O)O)cc1)NC(=O)CNC(=O)c1ccc2c(c1)C(=O)OC21c2ccc(O)cc2Oc2cc(O)ccc21)C(=O)N[C@H](C(=O)N[C@@H](CC(C)C)C(=O)N[C@@H](CC(=O)O)C(=O)N[C@@H](CCCCN)C(=O)N[C@@H](Cc1c[nH]c2ccccc12)C(=O)O)C(C)C [5-carboxyfluorescein-GY(PO3H2)LVLDKW] | 0.08 | 0.043 | 0.289 |
| 24.5 ± 1.4 | 12.3 ± 0.6 | 21 ± 1.5 | 10.2 ± 0.7 | 14 | 24 ± 2 | O=C(O)c1ccccc1OP(=O)(O)O [fosfosal, O‐phosphorylated salicylic acid] | – | – | – |
